Structures can show the parent of a compound that is named as a salt. Where two headings read alike, the source gives them in different places.
How the values were obtained:
[1] = target: T1, cloned human δ receptors (HDELTA) (Homo sapiens, UniProt P41143); assay: Binding assay, membranes of 293S cells expressing cloned human δ receptor
T1 construct: expressed in transfected cells; host or cells: human 293S cells (geneticin-selected), membranes

RAT BRAIN = RAT BRAIN (Rattus norvegicus, UniProt P33533); assay: Functional agonism rat brain (EC50, % EMAX); type: biochemical
Sequence of RAT BRAIN (P33533 whole entry): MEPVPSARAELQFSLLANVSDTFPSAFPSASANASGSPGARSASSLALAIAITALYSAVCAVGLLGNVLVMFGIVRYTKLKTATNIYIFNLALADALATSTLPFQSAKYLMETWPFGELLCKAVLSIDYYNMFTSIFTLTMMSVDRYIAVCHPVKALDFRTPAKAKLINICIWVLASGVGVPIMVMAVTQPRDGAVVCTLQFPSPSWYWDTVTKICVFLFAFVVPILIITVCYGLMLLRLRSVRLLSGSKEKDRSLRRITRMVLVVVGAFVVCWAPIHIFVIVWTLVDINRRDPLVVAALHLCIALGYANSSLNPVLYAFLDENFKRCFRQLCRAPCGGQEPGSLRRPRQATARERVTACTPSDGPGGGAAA

HDELTA = target: T2, HDELTA (Homo sapiens, UniProt P41143); assay: Functional agonism HDELTA (EC50, % EMAX); type: biochemical
T2 construct: expressed in transfected cells
T2 sequence (P41143 whole entry): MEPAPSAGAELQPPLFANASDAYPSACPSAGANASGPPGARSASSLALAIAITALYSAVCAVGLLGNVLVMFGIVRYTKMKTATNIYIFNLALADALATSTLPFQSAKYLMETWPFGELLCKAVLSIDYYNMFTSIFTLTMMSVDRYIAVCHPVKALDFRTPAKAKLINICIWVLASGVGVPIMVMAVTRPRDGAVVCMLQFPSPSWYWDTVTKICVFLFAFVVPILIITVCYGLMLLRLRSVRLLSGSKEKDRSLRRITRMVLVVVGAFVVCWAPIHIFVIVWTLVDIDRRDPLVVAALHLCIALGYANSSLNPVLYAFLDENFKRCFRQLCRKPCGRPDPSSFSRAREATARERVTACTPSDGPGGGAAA

MOUSE BRAIN = MOUSE BRAIN (Mus musculus, UniProt P32300); assay: Functional agonism mouse brain (EC50, % EMAX); type: biochemical
Sequence of MOUSE BRAIN (P32300 whole entry): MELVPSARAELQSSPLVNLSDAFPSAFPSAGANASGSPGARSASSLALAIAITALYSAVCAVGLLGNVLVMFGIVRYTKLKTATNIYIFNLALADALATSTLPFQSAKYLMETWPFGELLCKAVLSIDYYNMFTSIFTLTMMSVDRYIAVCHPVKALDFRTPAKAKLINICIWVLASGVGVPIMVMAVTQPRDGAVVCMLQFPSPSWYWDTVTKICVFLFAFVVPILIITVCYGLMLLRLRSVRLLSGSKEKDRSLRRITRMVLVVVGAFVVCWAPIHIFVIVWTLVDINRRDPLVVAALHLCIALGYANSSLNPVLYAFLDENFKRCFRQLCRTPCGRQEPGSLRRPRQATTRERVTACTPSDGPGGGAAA

[2] = Metabolic stability MLM (% remaining); type: in vitro ADME, mouse
[3] = Metabolic stability RLM (% remaining); type: in vitro ADME, rat
[4] = displacement of radioligand, human δ receptor membranes, read-out: HDELTA

T1 sequence (P41143 whole entry): as the sequence (P41143 whole entry) above

| Structure (SMILES) | IC50 [1] | Emax (RAT BRAIN) | EC50 (HDELTA) | Emax (HDELTA) | Emax (MOUSE BRAIN) | MLM 10000 % rem. [2] | MLM 100000 % rem. [2] | RLM 10000 % rem. [3] | RLM 100000 % rem. [3] | IC50 [1, 4] | EC50 (HDELTA; read-out: HDELTA EC50) | EC50 (RAT BRAIN) | RAT BRAIN % EMAX (RAT BRAIN) | HDELTA % EMAX (HDELTA) | EC50 (MOUSE BRAIN) | MOUSE BRAIN % EMAX (MOUSE BRAIN) |
| --- | --- | --- | --- | --- | --- | --- | --- | --- | --- | --- | --- | --- | --- | --- | --- | --- |
| CCN(CC)C(=O)c1ccc(C(c2cccc3cccnc23)N2CCN(Cc3ccccn3)CC2)cc1 (stereo not drawn) [Example 12, N,N-diethyl-4-[[4-(2-pyridinylmethyl)-1-piperazinyl](8-quinolinyl)methyl]benzamide Dihydrochloride] | 0.692 nM | 106% | 0.76 nM | 97.7% | 91.3% | 0 % rem. | 53.5 % rem. | 21.5 % rem. | 66 % rem. |  |  |  |  |  |  |  |
| CCN(CC)C(=O)c1ccc(C(c2cccc3cccnc23)N2CCN(Cc3ccsc3)CC2)cc1 (stereo not drawn) [Example 13, N,N-diethyl-4-[[4-(3-thienylmethyl)-1-piperazinyl](8-quinolinyl)methyl]benzamide] | 1.03 nM | 112% | 1.44 nM | 101% | 113% | 1.667 % rem. | 71.667 % rem. | 10 % rem. | 62.667 % rem. |  |  |  |  |  |  |  |
| CCN(CC)C(=O)c1ccc(C(c2cccc3cccnc23)N2CCN(Cc3ccco3)CC2)cc1 (stereo not drawn) [Example 14, N,N-diethyl-4-[[4-(2-furanylmethyl)-1-piperazinyl](8-quinolinyl)methyl]benzamide] | 0.181 nM | 102% | 0.76 nM | 88.7% | 106% | 0 % rem. | 49 % rem. | 13.5 % rem. | 84.5 % rem. |  |  |  |  |  |  |  |
| CCN(CC)C(=O)c1ccc(C(c2cccc3cccnc23)N2CCN(Cc3ccoc3)CC2)cc1 (stereo not drawn) [Example 15, N,N-diethyl-4-[[4-(3-furanylmethyl)-1-piperazinyl](8-quinolinyl)methyl]benzamide] | 0.787 nM | 109% | 0.79 nM | 89% | 110% | 0 % rem. | 68 % rem. | 10 % rem. | 86 % rem. |  |  |  |  |  |  |  |
| CCN(CC)C(=O)c1ccc(C(c2cccc3cccnc23)N2CCN(Cc3cccs3)CC2)cc1.Cl.Cl (stereo not drawn) [Example 16, N,N-diethyl-4-[[4-(2-thiophenylmethyl)-1-piperazinyl](8-quinolinyl)methyl]benzamide Dihydrochloride] | 1.51 nM | 100% | 2.39 nM | 99.4% | 98.4% | 0.5 % rem. | 46.5 % rem. | 9.5 % rem. | 64.5 % rem. |  |  |  |  |  |  |  |
| CCN(CC)C(=O)c1ccc(C(c2cccc3cccnc23)N2CCN(Cc3ncc[nH]3)CC2)cc1.Cl.Cl (stereo not drawn) [Example 17, N,N-diethyl-4-[[4-(2-imidazolylmethyl)-1-piperazinyl](8-quinolinyl)methyl]benzamide Dihydrochloride] | 1.09 nM | 106% | 3.03 nM | 95.7% | 92.5% | 0 % rem. | 21.5 % rem. | 5.5 % rem. | 75 % rem. |  |  |  |  |  |  |  |
| CCN(CC)C(=O)c1ccc(C(c2cccc3cccnc23)N2CCN(Cc3c[nH]cn3)CC2)cc1 (stereo not drawn) [Example 18, N,N-diethyl-4-[[4-(4-imidazolylmethyl)-1-piperazinyl](8-quinolinyl)methyl]benzamide Dihydrochloride] |  | 111% |  | 93.8% | 108% |  |  |  |  | 1.54 nM | 5.85 nM |  |  |  |  |  |
| CCN(CC)C(=O)c1ccc(C(c2cccc3cccnc23)N2CCN(Cc3nc[nH]n3)CC2)cc1.Cl.Cl (stereo not drawn) [Example 19, N,N-diethyl-4-[[4-(3-triazolylmethyl)-1-piperazinyl](8-quinolinyl)methyl]benzamide Dihydrochloride] |  |  |  |  |  |  |  |  |  | 18.8 nM | 85.2 nM | 2810 nM | 56.35% | 97.88% | 1370 nM | 48.68% |

From patent publication US6784181B2, “Piperazine-containing compounds useful in the treatment of pain” (AstraZeneca AB, priority 1999, dated 2004)
